According to patent US10550422B2, “Methods and compositions for labeling nucleic acids” (President and Fellows of Harvard College, priority 2005, dated 2020):

Assays:
HeLa cells [1] = experiment: AdU labeling of HeLa cells, stained with Alexa568-alkyne; format: cell-based; details: 10 μM AdU overnight, 10 μM Alexa568-alkyne; FIG. 16
Procedure: Here HeLa cells were labeled overnight in 10 μM AdU and then stained with 10 μM Alexa568-alkyne using the conditions described herein for staining cells labeled with EdU. FIG. 16 presents two pictures of a field of the stained HeLa cells.

HeLa cells [2] = experiment: EdU labeling of HeLa cells, fixed/permeabilized, stained with Xrhodamine-azide (click chemistry); format: cell-based; details: 1 μM EdU, cell in anaphase, FIG. 11
Procedure: Ethynyl-dU (EdU) was used in tissue culture media (DMEM complemented with penicillin, streptomycin, and fetal calf serum (FCS)) ranging from 10 nM to 1 μM depending on the length of the labeling pulse. For example, if cells to be labeled were synchronized in the S phase, 100 nM to 1 μM of EdU was used for 1 to 2 hours. After labeling, the cells were washed 3 or 4 times with PBS and then tissue culture media was added.
Staining Solution: 100 mM Tris pH 8.5 (from 2 M stock in water), 0.5 to 1 mM CuSO4 (from 1 M stock in water), 0.5 to 1 μM fluorophore-azide (from approximately 10-100 mM stock in DMSO), and water (as required) were mixed together. Ascorbic acid (from a […] stock in water) was then added to this solution to a final concentration of 50-100 mM, and the resulting staining solution is mixed thoroughly using a vortex.
Cells can be fixed by any suitable method, e.g., cells can be fixed by aldehyde fixation (formaldehyde or glutaraldehyde), with or without permeabilization. After fixation, the cells were washed in buffer with or without non-ionic detergent (0.2-0.5% Triton X100). Before staining, cells were rinsed with buffer without detergent (PBS or TBS). The cells were then incubated in the presence of the staining solution for at least 30 minutes. Overnight staining is preferably performed in a cold room. […]

HeLa cells [3] = experiment: Time-lapse fluorescence imaging of EdU-labeled live cells stained with TMR-propyl-azide; format: cell-based; details: 200 nM TMR-propyl-azide, 25 mM ascorbate, 1 mM copper (II) sulfate, 37° C.; FIG. 7
Procedure: Ascorbic acid (from a […] stock in water) was then added to this solution to a final concentration of 50 mM, and the resulting staining solution is mixed thoroughly.
Washes with methanol or ethanol may be performed to obtain low background
To facilitate live microscopic imaging, EdU-labeled cells were plated in coverslip chambers which were mounted on the heated stage (37° C.) of an inverted Nikon TE200)U microscope equipped for wide-field fluorescence microscopy as well as spinning-disk confocal fluorescence microscopy (Yokogama spinning disk confocal head from Perkin-Elmer). […] The cells were imaged by time-lapse fluorescent microscopy (one frame every 15 seconds) to detect the TMR signal accumulating in the nuclei of the EdU-labeled cells.

[4] = tested on: mouse intestine and brain; experiment: In vivo EdU labeling of mice, organ sections stained with Xrhodamine-azide and Hoechst; details: 200 micrograms EdU intraperitoneally, organs harvested three days later
Procedure: BLAB/C mice were injected with 200 micrograms of EdU intraperitoneally. Three days later, organs were harvested, fixed, embedded in paraffin and sectioned. The sections were then de-waxed and stained with Xrhadomine-azide for 5 minutes, stained with Hoechst, washed and then mounted.

HeLa cells [5] = experiment: Tracing a single sister chromatid: EdU pulse, chase of two cell cycles, Alexa568-azide stain; format: cell-based; details: EdU pulse during DNA synthesis, Alexa568-azide with permeabilization, FIG. 13
Excerpt: The purpose of the experiment reported herein was to label only one DNA molecule of the two that form a chromosome. That was accomplished by pulsing HeLa cells with EdU during DNA synthesis followed by a chase lasting two cell cycles, as depicted on FIG. 12. […] EdU allowed very nice resolution imaging of chromosomes in cells as shown by FIG. 13.

SMILES | detection of AdU in labeled cells (HeLa cells [1]) | EdU stain of cellular DNA (fluorescence microscopy) (HeLa cells [2]) | time to complete EdU detection on live cells (HeLa cells [3]) | EdU incorporation in intestine section ([4]; FIG. 8) | EdU-labeled cells in brain section ([4]; FIG. 10) | DNA molecules of a chromosome labeled after first and second mitosis (HeLa cells [5])
[N-]=[N+]=Nc1cn([C@H]2C[C@H](O)[C@@H](CO)O2)c(=O)[nH]c1=O [AdU, 5-azido-2′-deoxyuridine] | clearly detected in the nuclei of the labeled interphase cells as well as in the condensed chromosomes of mitotic cells |  |  |  |  | 
C#Cc1cn([C@H]2C[C@H](O)[C@@H](CO)O2)c(=O)[nH]c1=O [EdU, 5-ethynyl-2′deoxyuracil] |  | only the DNA replicating during the pulse was labeled | complete within minutes | The cells with red nuclei are the cells which incorporated EdU and their descendants | A sole EdU-labeled cell can be easily identified | In the first mitosis after labeling, both DNA molecules were labeled while in the second mitosis only one DNA molecule was labeled
